Earlier results in patent publication US20080139661A1, “Fragranted moistening fluids that destroy and/or inhibit the growth of biological organisms while minimizing a tacky build up” (Pitney Bowes Incorporated, priority 2006, published 2008).

Conditions: at 20° C., typical value

## O [Water]
  surface tension: around 72 dynes/cm
